Counter-ions that a name gives are not always drawn.
Molecular target: CCR4 (Homo sapiens (Human), UniProt P51679)
Test: Calcium mobilization (Ca Flux) assay
Type: cell-based
Experimental: Calcium Mobilization Assay. Calcium mobilization experiments may be performed by labeling the human T-cell line CEM with […] dye (45 min at room temperature), washing with PBS, and re-suspending into flux buffer (HBSS with 1% FBS).

Chain of CCR4 (P51679 whole entry): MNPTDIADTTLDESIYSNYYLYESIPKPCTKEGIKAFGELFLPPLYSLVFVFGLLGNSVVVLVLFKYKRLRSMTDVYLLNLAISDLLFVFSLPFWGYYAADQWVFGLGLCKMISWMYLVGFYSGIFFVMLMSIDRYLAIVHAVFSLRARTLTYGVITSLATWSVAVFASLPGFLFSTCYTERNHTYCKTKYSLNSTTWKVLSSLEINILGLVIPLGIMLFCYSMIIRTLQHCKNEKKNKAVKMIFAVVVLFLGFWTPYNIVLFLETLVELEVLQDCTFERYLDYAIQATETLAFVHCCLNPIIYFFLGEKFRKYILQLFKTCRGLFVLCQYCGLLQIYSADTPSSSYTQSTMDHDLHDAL

SMILES	IC50 [µM]
CC1CC(c2cnc3c(C#N)nn([C@H](C)c4ccc(Cl)cc4Cl)c3n2)=CCC1N1CCC[C@H]1CCC(=O)O (mixture of isomers) [Example 74, 3-((2S)-1-(4-(3-Cyano-1-((R)-1-(2,4-dichlorophenyl)ethyl)-1H-pyrazolo[3,4-b]pyrazin-6-yl)-6-methylcyclohex-3-en-1-yl)pyrrolidin-2-yl)propanoic acid 2,2,2-trifluoroacetate]	< 0.1
C[C@@H]1CN(c2cnc3c(C#N)nn([C@H](C)c4ccc(Cl)cc4Cl)c3n2)CC[C@@H]1N1CCC[C@H]1CCC(N)=O [Example 48, 3-((S)-1-((3R,4S)-1-(3-Cyano-1-((R)-1-(2,4-dichlorophenyl)ethyl)-1H-pyrazolo[3,4-b]pyrazin-6-yl)-3-methylpiperidin-4-yl)pyrrolidin-2-yl)propanamide 2,2,2-trifluoroacetate]	< 0.1
C[C@H](c1ccc(Cl)cc1Cl)n1nc(C#N)c2ncc(N3CCC(N4CCCC(CO)C4)CC3)nc21 (stereo partly drawn) [Example 62, 1-((R)-1-(2,4-Dichlorophenyl)ethyl)-6-(3-(hydroxymethyl)-[1,4′-bipiperidin]-1′-yl)-1H-pyrazolo[3,4-b]pyrazine-3-carbonitrile hydrochloride]	0.1 to 0.5
C[C@@H]1CN(c2cnc3c(C#N)nn([C@H](C)c4ccc(Cl)cc4Cl)c3n2)CC[C@@H]1N1CCCCC1 [Example 23, 1-((R)-1-(2,4-Dichlorophenyl)ethyl)-6-((3′R,4′S)-3′-methyl-[1,4′-bipiperidin]-1′-yl)-1H-pyrazolo[3,4-b]pyrazine-3-carbonitrile hydrochloride]	< 0.1
Cc1nn([C@H](C)c2ccc(Cl)cc2Cl)c2nc(C3=CCC(N4CCC[C@H]4CO)C(C)C3)cnc12 (stereo partly drawn) [Example 78, ((2S)-1-(4-(1-((R)-1-(2,4-Dichlorophenyl)ethyl)-3-methyl-1H-pyrazolo[3,4-b]pyrazin-6-yl)-6-methylcyclohex-3-en-1-yl)pyrrolidin-2-yl)methanol]	< 0.1
C[C@@H]1CC(c2cnc3c(C#N)nn([C@H](C)c4ccc(Cl)cc4Cl)c3n2)=CCC1N1CCC[C@H]1C(O)CS(C)(=O)=O (stereo partly drawn) [Example 87, 1-((R)-1-(2,4-Dichlorophenyl)ethyl)-6-((4S,5R)-4-((2S)-2-(1-hydroxy-2-(methylsulfonyl)ethyl)pyrrolidin-1-yl)-5-methylcyclohex-1-en-1-yl)-1H-pyrazolo[3,4-b]pyrazine-3-carbonitrile hydrochloride]	< 0.1
Cc1nn([C@H](C)c2ccc(Cl)cc2Cl)c2nc(N3CC[C@H](N4CCC[C@H]4C)[C@H](C)C3)cnc12 [Example 20, 1-((R)-1-(2,4-Dichlorophenyl)ethyl)-3-methyl-6-((3R,4S)-3-methyl-4-((R)-2-methylpyrrolidin-1-yl)piperidin-1-yl)-1H-pyrazolo[3,4-b]pyrazine hydrochloride]	< 0.1
Cc1nn([C@H](C)c2ccc(Cl)cc2Cl)c2nc(N3CCC(N4CCC[C@H]4C4CC4C(=O)O)C(C)C3)cnc12 (mixture of isomers) [Example 54, 2-((2S)-1-(1-(1-((R)-1-(2,4-Dichlorophenyl)ethyl)-3-methyl-1H-pyrazolo[3,4-b]pyrazin-6-yl)-3-methylpiperidin-4-yl)pyrrolidin-2-yl)cyclopropane-1-carboxylic acid]	> 0.5
Cc1nn([C@H](C)c2ccc(Cl)cc2Cl)c2nc(C3=CCC(N4CCC[C@H]4CCC(N)=O)[C@H](C)C3)cnc12 (stereo partly drawn) [Example 77, 3-((S)-1-((1S,6R)-4-(1-((R)-1-(2,4-Dichlorophenyl)ethyl)-3-methyl-1H-pyrazolo[3,4-b]pyrazin-6-yl)-6-methylcyclohex-3-en-1-yl)pyrrolidin-2-yl)propanamide 2,2,2-trifluoroacetae]	< 0.1
C[C@H](c1ccc(Cl)cc1Cl)n1nc(C#N)c2ncc(C3=CC[C@@H](N4CCC[C@H]4C(N)=O)[C@@H](C)C3)nc21 [Example 80, (S)-1-((1R,6S)-4-(3-Cyano-1-((R)-1-(2,4-dichlorophenyl)ethyl)-1H-pyrazolo[3,4-b]pyrazin-6-yl)-6-methylcyclohex-3-en-1-yl)pyrrolidine-2-carboxamide hydrochloride]	0.1 to 0.5
Cc1nn([C@H](C)c2ccc(Cl)cc2Cl)c2nc(N3C[C@@H](C)[C@@H](N4CCCC4)C[C@@H]3C)cnc12 [Example 19, 1-((R)-1-(2,4-Dichlorophenyl)ethyl)-6-((2S,4S,5R)-2,5-dimethyl-4-(pyrrolidin-1-yl)piperidin-1-yl)-3-methyl-1H-pyrazolo[3,4-b]pyrazine hydrochloride]	0.1 to 0.5
C[C@H](c1ccc(Cl)cc1Cl)n1nc(C#N)c2ncc(N3CC[C@@H](N4CCCCC4)[C@@H](CO)C3)nc21 [Example 28, 1-((R)-1-(2,4-Dichlorophenyl)ethyl)-6-((3′S,4′R)-3′-(hydroxymethyl)-[1,4′-bipiperidin]-1′-yl)-1H-pyrazolo[3,4-b]pyrazine-3-carbonitrile hydrochloride]	0.1 to 0.5
Cc1nn([C@H](C)c2ccc(Cl)cc2Cl)c2nc(N3CCC(N4CCC[C@H]4CC(O)C(=O)O)C(C)C3)cnc12 (stereo partly drawn) [Example 59, 3-((2S)-1-(1-(1-((R)-1-(2,4-Dichlorophenyl)ethyl)-3-methyl-1H-pyrazolo[3,4-b]pyrazin-6-yl)-3-methylpiperidin-4-yl)pyrrolidin-2-yl)-2-hydroxypropanoic acid 2,2,2-trifluoroacetate]	0.1 to 0.5
CCOC(=O)c1nn(C(C)c2ccc(Cl)cc2Cl)c2nc(N3CCC(N4CCCCC4)C(C)C3)cnc12 (stereo not shown) [Example 2, Ethyl 1-(1-(2,4-dichlorophenyl)ethyl)-6-(3′-methyl-[1,4′-bipiperidin]-1′-yl)-1H-pyrazolo[3,4-b]pyrazine-3-carboxylate hydrochloride]	0.1 to 0.5
Cc1nn([C@H](C)c2ccc(Cl)cc2Cl)c2nc(C3=CCC(N4CCC[C@H]4C(=O)O)C(C)C3)cnc12 (stereo partly drawn) [Example 70, (4-(1-((R)-1-(2,4-Dichlorophenyl)ethyl)-3-methyl-1H-pyrazolo[3,4-b]pyrazin-6-yl)-6-methylcyclohex-3-en-1-yl)-L-proline trifluoroacetate]	0.1 to 0.5
Cc1nn([C@H](C)c2ccc(Cl)cc2Cl)c2nc(N3CC[C@H](N4CCC[C@H]4C)[C@H](C(=O)O)C3)cnc12 [Example 30, (3R,4S)-1-(1-((R)-1-(2,4-Dichlorophenyl)ethyl)-3-methyl-1H-pyrazolo[3,4-b]pyrazin-6-yl)-4-((R)-2-methylpyrrolidin-1-yl)piperidine-3-carboxylic acid hydrochloride]	0.1 to 0.5
CC(c1ccc(Cl)cc1Cl)n1nc(C(N)=O)c2ncc(N3CCC(N4CCCCC4)C(F)C3)nc21 (stereo not shown) [Example 25, 1-(1-(2,4-Dichlorophenyl)ethyl)-6-(3′-fluoro-[1,4′-bipiperidin]-1′-yl)-1H-pyrazolo[3,4-b]pyrazine-3-carboxamide hydrochloride]	0.1 to 0.5
C[C@H](c1ccc(Cl)cc1Cl)n1nc(C#N)c2ncc(N3CC[C@H](N4CCC[C@H]4C(=O)O)[C@H](C(C)(C)O)C3)nc21 [Example 64, ((3R,4S)-1-(3-Cyano-1-((R)-1-(2,4-dichlorophenyl)ethyl)-1H-pyrazolo[3,4-b]pyrazin-6-yl)-3-(2-hydroxypropan-2-yl)piperidin-4-yl)-L-proline hydrochloride]	> 0.5
Cc1nn([C@H](C)c2ccc(Cl)cc2Cl)c2nc(N3CCC(N4CCC[C@H]4CCC(=O)O)C[C@@H]3C)cnc12 (mixture of isomers) [Example 50, 3-((2S)-1-((2S)-1-(1-((R)-1-(2,4-Dichlorophenyl)ethyl)-3-methyl-1H-pyrazolo[3,4-b]pyrazin-6-yl)-2-methylpiperidin-4-yl)pyrrolidin-2-yl)propanoic acid 2,2,2-trifluoroacetate]	> 0.5
CCOC(=O)c1nn(Cc2ccc(Cl)cc2Cl)c2nc(N3CCC(N4CCCCC4)C(C)C3)cnc12 (stereo not shown) [Example 11, Ethyl 1-(2,4-dichlorobenzyl)-6-(3′-methyl-[1,4′-bipiperidin]-1′-yl)-1H-pyrazolo[3,4-b]pyrazine-3-carboxylate hydrochloride]	0.1 to 0.5
Cc1nn([C@H](C)c2ccc(Cl)cc2Cl)c2nc(N3CC[C@H](N4CCC[C@H]4C(=O)O)[C@H](C)C3)cnc12 [Example 34, ((3R,4S)-1-(1-((R)-1-(2,4-Dichlorophenyl)ethyl)-3-methyl-1H-pyrazolo[3,4-b]pyrazin-6-yl)-3-methylpiperidin-4-yl)-L-proline 2,2,2-trifluoroacetate]	> 0.5
Cc1nn([C@H](C)c2ccc(Cl)cc2Cl)c2nc(N3CC[C@H](N4CCC[C@H]4C(C)(C)O)[C@H](C)C3)cnc12 [Example 36, 2-((S)-1-((3R,4S)-1-(1-((R)-1-(2,4-Dichlorophenyl)ethyl)-3-methyl-1H-pyrazolo[3,4-b]pyrazin-6-yl)-3-methylpiperidin-4-yl)pyrrolidin-2-yl)propan-2-ol hydrochloride]	0.1 to 0.5
Cc1nn([C@H](C)c2ccc(Cl)cc2Cl)c2nc(N3CC[C@H](N4CC=CC4)[C@H](C)C3)cnc12 [Example 17, 1-((R)-1-(2,4-Dichlorophenyl)ethyl)-6-((3R,4S)-4-(2,5-dihydro-1H-pyrrol-1-yl)-3-methylpiperidin-1-yl)-3-methyl-1H-pyrazolo[3,4-b]pyrazine hydrochloride]	0.1 to 0.5
Cc1nn([C@H](C)c2ccc(Cl)cc2Cl)c2nc(C3=CCC(N4CCC[C@H]4CO)CC3)cnc12 (stereo partly drawn) [Example 68, ((2S)-1-(4-(1-((R)-1-(2,4-Dichlorophenyl)ethyl)-3-methyl-1H-pyrazolo[3,4-b]pyrazin-6-yl)cyclohex-3-en-1-yl)pyrrolidin-2-yl)methanol]	0.1 to 0.5
C[C@@H]1C=C(c2cnc3c(C#N)nn([C@H](C)c4ccc(Cl)cc4Cl)c3n2)CC[C@@H]1N1CCC[C@H]1CO [Example 69, 1-((R)-1-(2,4-Dichlorophenyl)ethyl)-6-((3R,4S)-4-((S)-2-(hydroxymethyl)pyrrolidin-1-yl)-3-methylcyclohex-1-en-1-yl)-1H-pyrazolo[3,4-b]pyrazine-3-carbonitrile hydrochloride]	0.1 to 0.5

Source: US10246462B2, “Chemokine receptor modulators and uses thereof” (FLX Bio, Inc., priority 2016, dated 2019)
